Molecular target: T1, TANK-2 enzyme (Homo sapiens, UniProt Q9H2K2)
T1 construct: His tag (inferred from capture on a Ni-coated plate); made in house
T1 sequence (Q9H2K2 1-1166): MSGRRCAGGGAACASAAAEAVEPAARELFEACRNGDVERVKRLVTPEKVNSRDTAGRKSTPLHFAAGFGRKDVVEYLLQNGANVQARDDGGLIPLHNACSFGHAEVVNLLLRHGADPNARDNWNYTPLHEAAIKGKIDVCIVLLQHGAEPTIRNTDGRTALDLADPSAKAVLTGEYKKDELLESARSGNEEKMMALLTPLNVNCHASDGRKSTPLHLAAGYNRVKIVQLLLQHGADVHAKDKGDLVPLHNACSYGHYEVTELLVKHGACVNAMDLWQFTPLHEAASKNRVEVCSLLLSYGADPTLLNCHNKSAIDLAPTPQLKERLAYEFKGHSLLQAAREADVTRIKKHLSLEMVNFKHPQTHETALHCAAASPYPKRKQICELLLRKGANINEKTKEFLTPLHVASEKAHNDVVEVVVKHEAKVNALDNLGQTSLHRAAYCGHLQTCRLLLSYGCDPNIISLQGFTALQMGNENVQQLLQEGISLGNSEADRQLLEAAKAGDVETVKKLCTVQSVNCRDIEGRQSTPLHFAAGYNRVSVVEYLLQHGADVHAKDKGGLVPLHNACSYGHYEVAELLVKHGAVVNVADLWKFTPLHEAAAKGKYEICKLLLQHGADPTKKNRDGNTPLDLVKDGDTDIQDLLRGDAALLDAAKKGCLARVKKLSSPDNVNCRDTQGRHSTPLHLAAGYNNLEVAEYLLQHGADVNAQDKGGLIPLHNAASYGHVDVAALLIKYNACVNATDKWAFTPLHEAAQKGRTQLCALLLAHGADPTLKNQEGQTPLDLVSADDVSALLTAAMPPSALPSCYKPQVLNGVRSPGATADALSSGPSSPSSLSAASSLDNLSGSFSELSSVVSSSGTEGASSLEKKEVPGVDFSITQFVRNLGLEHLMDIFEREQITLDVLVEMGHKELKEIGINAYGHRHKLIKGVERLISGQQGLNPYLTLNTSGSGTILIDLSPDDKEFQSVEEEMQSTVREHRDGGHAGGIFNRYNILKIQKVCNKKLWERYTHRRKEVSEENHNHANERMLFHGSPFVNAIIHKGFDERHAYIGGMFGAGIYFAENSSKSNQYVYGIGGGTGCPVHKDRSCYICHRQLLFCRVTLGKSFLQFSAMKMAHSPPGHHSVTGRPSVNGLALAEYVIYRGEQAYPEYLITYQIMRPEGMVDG
Assay: in vitro Scintillation Proximity Assay (SPA) for TANK-2 inhibitory activity
Type: biochemical
Description: In Vitro Scintillation Proximity Assay (SPA) for Tank-2 Inhibitory Activity
Compounds of the present invention were tested in an in vitro assay based on SPA technology with Ni Flash plates (96 or 384 well).
In principle, the assay relies upon SPA technology for the detection of auto-poly(ADP-ribosylation of TANK-2 protein using [^3H]-nicotinamide adenine dinucleotide ([^3H]-NAD^+) as ADP-ribosyl donor.
A stock solution of [^3H]-NAD^+/NAD was made by adding 64.6 μl of [^3H]-NAD^+ (0.1 mCi/ml, supplier: Perkin Elmer) and 46.7 μl NAD-stock (10.7 mM, stored at −20° C., supplier Roche) to 1888.7 μl assay buffer (60 mM Tris/HCl, pH 7.4; 0.9 mM DTT; 6 mM MgCl2). The TANK-2 enzyme was produced as described in EP1238063.60 μl of assay buffer, together with 1 μl of compound in DMSO, 20 μl of [^3H]-NAD^+/NAD and 20 μl of TANK-2 enzyme (final concentration 6 μg/ml) was added per well into a 96-well Ni-coated flash plate (Perkin Elmer). After incubation of the mixture for 120 min. at room temperature, the reaction was terminated by adding 60 μl of stopsolution (42.6 mg NAD in 6 ml H2O). The plates were covered with a plate sealer and placed in a TopCountNXT™ (Packard) for scintillation counting. Values were expressed as counts per minute (cpm). For each experiment, controls (containing TANK-2 enzyme and DMSO without compound), a blank incubation (containing DMSO but no TANK-2 enzyme or compound) and samples (containing TANK-2 enzyme and compound dissolved in DMSO) were run in parallel. All compounds tested were dissolved and eventually further diluted in DMSO. […] In each test, the blank value was subtracted from both the control and the sample values. The control sample represented maximal TANK-2 enzyme activity. For each sample, the amount of cpm was expressed as a percentage of the mean cpm value of the controls. When appropriate, IC50-values (concentration of the drug, needed to reduce the TANK-2 enzyme activity to 50% of the control) were computed using linear interpolation between the experimental points just above and below the 50% level. Herein the effects of test compounds are expressed as pIC50 (the negative log value of the IC50-value). As reference compounds, 3-aminobenzamide and 4-amino-1,8-naphthalimide were included to validate the SPA assay. Herein the assay was described using 96-well plates. In the assay using 384-well plates the same final concentrations were used and volumes were adapted.

First: Cc1nnc(N2CCN(CCn3c(=O)[nH]c4ccccc43)CC2)c2ccccc12 [Compound 71]
Second: Cc1nnc(N2CCN(CCn3c(=O)[nH]c4ccccc4c3=O)CC2)c2ccccc12 [Compound 70]
The IC50 of the first is higher: greater than 10 µM for the first, 3.73 µM for the second.

Compared with `O=c1[nH]nc(C2CCN(c3ncccn3)CC2)c2ccccc12` [Compound 69], `O=c1[nH]nc(C2CCN(Cc3ccccc3)CC2)c2ccccc12` [Compound 1] is 1.5-fold higher in IC50: 5.52 µM for the first, 8.43 µM for the second.

Going from `Cc1nnc(N2CCN(CCCC(c3ccc(F)cc3)c3ccc(F)cc3)CC2)c2ccccc12` [Compound 29] to `Fc1ccc(C(CCCN2CCN(c3nnc(Cl)c4ccccc34)CC2)c2ccc(F)cc2)cc1` [Compound 57], the IC50 falls from greater than 10 µM to 5.08 µM.

First: O=c1[nH]nc(NC2CCCN(CCCC(c3ccc(F)cc3)c3ccc(F)cc3)CC2)c2ccccc12 (stereo not shown) [Compound 30]
Second: O=c1[nH]nc(NCC2CCCN(CCCC(c3ccc(F)cc3)c3ccc(F)cc3)C2)c2ccccc12 (stereo not shown) [Compound 49]
The IC50 of the first is 2.6-fold higher: 4 µM for the first, 1.56 µM for the second.

`CCOC(=O)N1CCCC(Nc2n[nH]c(=O)c3ccccc23)CC1` (stereo not shown) [Compound 50] and `CCOC(=O)N1CCC(Nc2n[nH]c(=O)c3ccccc23)CC1` [Compound 56] cannot be ordered by IC50: greater than 10 µM for the first, greater than 10 µM for the second.

Going from `O=c1[nH]nc(NC2CCN(C/C=C/c3ccccc3)CC2)c2ccccc12` [Compound 65] to `O=c1[nH]nc(C2CCN(C/C=C/c3ccccc3)CC2)c2ccccc12` [Compound 66], the IC50 falls from greater than 10 µM to 4.33 µM. The second is the more potent here.

`O=c1[nH]nc(C2CCN(CCCCOc3ccccc3)CC2)c2ccccc12` [Compound 68] and `O=c1[nH]nc(NC2CCN(CCCCOc3ccccc3)CC2)c2ccccc12` [Compound 46] cannot be ordered by IC50: greater than 10 µM for the first, greater than 10 µM for the second.

Compared with `O=c1[nH]nc(N[C@@H]2C[C@H]3CC[C@@H](C2)N3CCCC(c2ccc(F)cc2)c2ccc(F)cc2)c2ccccc12` [Compound 3], `O=c1[nH]nc(C2CCN(CCCC(c3ccc(F)cc3)c3ccc(F)cc3)CC2)c2ccccc12` [Compound 67] is higher in IC50: 5.05 µM for the first, greater than 10 µM for the second. The first is the more potent here.

`Cc1nc2n(c(=O)c1CCN1CCN(c3nnc(C)c4ccccc34)CC1)CCCS2` [Compound 76] and `Cc1nc2n(c(=O)c1CCN1CCN(c3nnc(C)c4ccccc34)CC1)CCS2` [Compound 75] cannot be ordered by IC50: greater than 10 µM for the first, greater than 10 µM for the second.

`CCOC(=O)N1CCN(c2nnc(Cl)c3ccccc23)CC1` [Compound 58] and `Clc1nnc(N2CCN(c3ccccc3)CC2)c2ccccc12` [Compound 77] are within 1.5-fold of each other in IC50: 9.02 µM for the first, 8.83 µM for the second.

First: Clc1nnc(NC2CCN(CCCCOc3ccccc3)CC2)c2ccccc12 [Compound 59]
Second: Clc1nnc(NC2CCN(Cc3ccccc3)C2)c2ccccc12 (stereo not shown) [Compound 12]
The IC50 of the first is higher: greater than 10 µM for the first, 9.27 µM for the second.

`O=c1[nH]nc(N[C@@H]2C[C@H]3CC[C@@H](C2)N3)c2ccccc12` [Compound 15] and `O=c1[nH]nc(NC2CCCNCC2)c2ccccc12` (stereo not shown) [Compound 34] cannot be ordered by IC50: greater than 10 µM for the first, greater than 10 µM for the second.

Going from `CCOC(=O)N1CCC(Nc2n[nH]c(=O)c3ccccc23)C1` (stereo not shown) [Compound 48] to `CCOC(=O)N1[C@@H]2CC[C@H]1C[C@H](Nc1n[nH]c(=O)c3ccccc13)C2` [Compound 11], the IC50 falls from greater than 10 µM to 2.13 µM.

First: Cc1nc2scc(C)n2c(=O)c1CCN1CCN(c2nnc(C)c3ccccc23)CC1 [Compound 74]
Second: Cc1nc2sccn2c(=O)c1CCN1CCN(c2nnc(C)c3ccccc23)CC1 [Compound 73]
The IC50 of the first is lower: 4.69 µM for the first, greater than 10 µM for the second.

`CN(c1nc2ccccc2s1)C1CCN(c2nnc(Cl)c3ccccc23)CC1` [Compound 61] and `Cc1nc2ccccn2c(=O)c1CCN1CCN(c2nnc(C)c3ccccc23)CC1` [Compound 72] cannot be ordered by IC50: greater than 10 µM for the first, greater than 10 µM for the second.

`O=c1[nH]nc(NC2CCN(C[C@@H](O)[C@@H]3CCc4ccccc4O3)CC2)c2ccccc12` (relative stereo) [Compound 27] and `COc1ccc(CCN2CCC(Nc3n[nH]c(=O)c4ccccc34)CC2)cc1` [Compound 63] cannot be ordered by IC50: greater than 10 µM for the first, greater than 10 µM for the second.

Going from `O=c1[nH]nc(N2CCC(c3cccc(C(F)(F)F)c3)C2)c2ccccc12` (stereo not shown) [Compound 55] to `O=c1[nH]nc(NC2CCN(Cc3ccccc3)C2)c2ccccc12` (stereo not shown) [Compound 51], the IC50 rises from 1.5 µM to greater than 10 µM.

`CCOC(=O)N1CCC(c2n[nH]c(=O)c3ccccc23)CC1` [Compound 25] and `O=c1[nH]nc(C2CCNCC2)c2ccccc12` [Compound 4] cannot be ordered by IC50: greater than 10 µM for the first, greater than 10 µM for the second.

Compared with `O=c1[nH]nc(N2CCN(CCCC(c3ccc(F)cc3)c3ccc(F)cc3)CC2)c2ccccc12` [Compound 52], `O=c1[nH]nc(C2CCN(CCCOc3ccc(F)cc3)CC2)c2ccccc12` [Compound 13] is higher in IC50: 6.55 µM for the first, greater than 10 µM for the second. The first is the more potent here.

Going from `CCOC(=O)N1[C@@H]2CC[C@H]1C[C@H](Nc1nnc(Cl)c3ccccc13)C2` [Compound 24] to `O=c1[nH]nc(NC2CCCN(Cc3ccccc3)C2)c2ccccc12` (stereo not shown) [Compound 53], the IC50 rises from 4.37 µM to greater than 10 µM.

In the case of `O=c1[nH]nc(NCC2CCCN(Cc3ccccc3)C2)c2ccccc12` (stereo not shown) [Compound 44], the IC50 is reported as greater than 10 µM.

Tested on: not given
Assay: not given

First: O=c1[nH]nc(C2CCN(Cc3ccccc3)CC2)c2ccccc12 [Compound 1]
Second: CCOC(=O)N1[C@@H]2CC[C@H]1C[C@H](Nc1n[nH]c(=O)c3ccccc13)C2 [Compound 11]
The melting point of the first is higher: 222 °C for the first, 218.6 °C for the second.
